The record followed here is patent US9434711B2 (Janssen Pharmaceutica, NV, priority 2007, dated 2016).

Experiment [1] deals with Male Sprague Dawley rats. The experiment is described as follows: Reversal of Icilin-Induced Behaviors in Rats. It counts as in vivo. The conditions noted are these: Rattus norvegicus, po, 1 h, 30 mg/kg p.o., 1 h post-icilin. The method, then: Male Sprague Dawley rats (225-450 g, Charles River Labs, n=4-6/treatment) were used to evaluate the ability of selected compounds of the formula (I) to reverse icilin-induced “wet-dog” shakes. Icilin was administered in PEG-400 or 10% solutol/H2O, at 1.0 or 3.0 mg/kg, i.p. and spontaneous “wet-dog” shakes (WDS) were counted 10-20 minutes post-icilin. […] Results are presented as a percent inhibition of shakes, which was calculated as [1-(test compound WDS count/vehicle WDS count)]×100.

The target in experiment [2] is canine TRPM8 (Canis lupus familiaris, UniProt Q1A7N1). Nature of the experiment: In Vitro Canine TRPM8 Functional Assay (Ca2+ fluorescence, icilin activation). The class given is cell-based. The conditions noted are these: for IC50: HEK293 cells stably expressing canine TRPM8, icilin activation, eight-point dose-response, read-out: IC50; for inhibition at 0.5 µM: compound at 0.5 μM, read-out: % Inh @ 0.5; for inhibition at 0.5 µM / % Inh @ 0.2 (μM) / inhibition at 0.2 µM: canine TRPM8, icilin activation; for % Inh @ 0.2 (μM) / inhibition at 0.2 µM: compound at 0.2 μM; for inhibition at 0.2 µM: read-out: % Inh @ 0.2. The method in brief:
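Eight-point dose-response curves in quadruplicate gave EC50 or IC50 values from a Ca2+-sensitive dye assay in HEK293 cells stably carrying canine TRPM8. Icilin, dosed near its 80% maximal level, followed a 5 min compound exposure.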

In experiment [3] the test system is Male Sprague Dawley rats. Nature of the experiment: Inhibition of Icilin-Induced "Wet-Dog" Shakes in Rats. The conditions noted are these: Na salt form; for % Inhibition: dose 30 p.o.; for ED50: Rattus norvegicus, po, 0.5 h. It counts as in vivo, rat. The method, then: Male Sprague Dawley rats (220-450 g, Charles River Labs, n=6-9/treatment) were used to evaluate the ability of selected compounds of the formula (I) to block icilin-induced “wet-dog” shakes (WDS). Compounds of the formula (I) were administered in an appropriate vehicle, such as hydroxypropyl-β-cyclodextrin (HPβCD), methocellulose, 10% Solutol, or H2O, or the like, by the appropriate route, i.p. or p.o., 30-120 minutes before icilin. Icilin was administered in PEG-400 or 10% solutol/H2O, at 1.0 or 3.0 mg/kg, i.p. and spontaneous “wet-dog” shakes were counted 10-20 minutes post-icilin. Results are presented as a percent inhibition of shakes, which was calculated as [1-(test compound WDS count/vehicle WDS count)]×100.

Experiment [4] deals with Male Sprague Dawley rats. The experiment is described as follows: Chronic Constriction Injury (CCI)-Induced Model of Neuropathic Pain, Acetone-Induced Hypersensitivity. It counts as in vivo, rat. An excerpt: Male Sprague Dawley rats (225-450 g; n=5-8/treatment) were used to evaluate the ability of selected compounds of the formula (I) to reverse CCI-induced cold hypersensitivity. Four loose ligatures of 4-0 chromic gut were surgically placed around the left sciatic nerve under inhalation anesthesia as described by Bennett et al (Bennett G J, Xie Y K. Pain 1988, 33(1): 87-107). Fourteen to 35 days following CCI surgery, subjects were placed in elevated observation chambers containing wire mesh floors and five applications of acetone (0.05 mL/application separated by approximately 5 minutes) were spritzed onto the plantar surface of the paw using a multidose syringe. An abrupt withdrawal or lifting of the paw was considered a positive response. The number of positive responses was recorded for each rat over the five trials. Following baseline withdrawal determinations, compounds of formula (I) are administered in an appropriate vehicle, such as hydroxypropyl-β-cyclodextrin (HP β CD), methylcellulose, Methocel, 10% Solutol, or H2O, or the like, by the appropriate route, i.p. or p.o. […] Results are presented as a percent inhibition of […], which was calculated for each subject as [1−(test compound withdrawals/pre-test withdrawals)]×100 and then averaged by treatment.

Each structure is given as a SMILES string.

Sequence of canine TRPM8 (Q1A7N1 1-1104): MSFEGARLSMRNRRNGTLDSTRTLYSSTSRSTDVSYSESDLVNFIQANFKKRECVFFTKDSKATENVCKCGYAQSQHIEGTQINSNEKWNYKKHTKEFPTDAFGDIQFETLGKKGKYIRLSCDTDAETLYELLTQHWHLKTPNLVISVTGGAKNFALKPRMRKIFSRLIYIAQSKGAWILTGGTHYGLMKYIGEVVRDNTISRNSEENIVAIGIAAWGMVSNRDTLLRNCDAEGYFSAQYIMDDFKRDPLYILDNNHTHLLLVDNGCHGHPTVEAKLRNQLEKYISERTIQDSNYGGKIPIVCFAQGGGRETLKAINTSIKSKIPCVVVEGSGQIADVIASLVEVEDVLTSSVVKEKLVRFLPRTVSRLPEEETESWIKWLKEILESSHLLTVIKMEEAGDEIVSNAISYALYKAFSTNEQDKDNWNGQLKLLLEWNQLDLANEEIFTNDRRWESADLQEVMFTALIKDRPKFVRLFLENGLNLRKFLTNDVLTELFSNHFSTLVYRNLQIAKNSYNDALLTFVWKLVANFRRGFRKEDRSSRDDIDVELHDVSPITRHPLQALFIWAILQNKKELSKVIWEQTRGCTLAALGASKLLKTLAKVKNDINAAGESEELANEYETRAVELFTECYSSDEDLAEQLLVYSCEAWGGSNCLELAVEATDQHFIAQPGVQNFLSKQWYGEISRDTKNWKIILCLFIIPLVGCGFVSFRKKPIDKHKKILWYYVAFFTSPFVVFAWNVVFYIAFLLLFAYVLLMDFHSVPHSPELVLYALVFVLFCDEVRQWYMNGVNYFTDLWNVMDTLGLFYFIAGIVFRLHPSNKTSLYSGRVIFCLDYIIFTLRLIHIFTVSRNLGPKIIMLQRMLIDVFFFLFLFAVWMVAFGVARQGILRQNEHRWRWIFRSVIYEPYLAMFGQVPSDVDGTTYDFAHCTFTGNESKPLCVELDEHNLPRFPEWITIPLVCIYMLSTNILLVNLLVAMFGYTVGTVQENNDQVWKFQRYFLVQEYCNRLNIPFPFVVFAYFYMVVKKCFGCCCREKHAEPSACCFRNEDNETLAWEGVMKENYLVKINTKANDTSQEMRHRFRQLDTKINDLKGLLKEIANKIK

Turning to `O=S(=O)(c1ccccc1)N(Cc1ccccn1)c1sc2ccccc2c1Br` [Compound 168, N-(3-Bromo-benzo[b]thiophen-2-yl)-N-(pyridin-2-ylmethyl)-benzenesulfonamide], the inhibition in vivo at 30 mg/kg in experiment [1] was -29%. Further, in experiment [2], the 50% inhibitory concentration (IC50) stood at 14.2 nM and the inhibition at 0.5 µM turned out to be 96%.

As for `Cc1c(N(Cc2ccc(F)c(F)c2)S(=O)(=O)c2ccccc2)sc2ccccc12` [Compound 125, N-(3,4-Difluoro-benzyl)-N-(3-methyl-benzo[b]thiophen-2-yl)-benzenesulfonamide], the inhibition in vivo at 30 mg/kg in experiment [1] worked out at 39%. Further, in experiment [2], the IC50 is 5 nM and the inhibition at 0.5 µM was 99%.

In the case of `Cc1c(N(CCC2CC2)S(=O)(=O)c2ccc(C(=O)[O-])cc2)sc2ccccc12.[Na+]` [Compound 400, Sodium, N-(2-Cyclopropylethyl)-N-(3-methylbenzo[b]thiophen-2-yl)-4-carboxy-benzenesulfonamide], in experiment [3] (HPbCD, 30 min pre-icilin), the “% Inhibition” value was 84%. Besides, in experiment [2], the IC50 was found to be 5 nM and the “% Inh @ 0.2 (μM)” value worked out at 102%. Also, in experiment [4] (30 mg/kg p.o., Water, pretreatment 1 hr, Na salt form), the “Percent Inhibition” value is 40%. In experiment [4] (30 mg/kg p.o., Water, pretreatment 3 hr, Na salt form), the “Percent Inhibition” value is reported as 25%.

Consider `O=S(=O)(c1ccccc1)N(Cc1ccc(OC(F)(F)F)cc1)c1sc2ccccc2c1Br` [Compound 174, N-(3-Bromo-benzo[b]thiophen-2-yl)-N-(4-trifluoromethoxy-benzyl)-benzenesulfonamide], for which the inhibition in vivo at 30 mg/kg in experiment [1] was determined as 45%. Also, in experiment [2], the IC50 stood at 2.5 nM and the inhibition at 0.5 µM was determined as 99%.

`Cc1c(N(Cc2cccc3cccnc23)S(=O)(=O)c2cccnc2)sc2ccccc12` [Compound 14, N-(3-Methyl-benzo[b]thiophen-2-yl)-N-(quinolin-8-ylmethyl)-pyridine-3-sulfonamide]: the inhibition in vivo at 30 mg/kg in experiment [1] was -16%. In experiment [2], the half-maximal inhibitory concentration (IC50) turned out to be 18.9 nM and the inhibition at 0.5 µM worked out at 99%.

As to `O=C(O)c1ccc(S(=O)(=O)N(CC2CC2)c2sc3ccccc3c2Br)cc1` [Compound 273, N-(3-Bromo-benzo[b]thiophen-2-yl)-N-(cyclopropylmethyl)-4-carboxy-benzenesulfonamide], in experiment [3] (HPbCD, 30 min pre-icilin), the 50% effective dose (ED50) was 53 mg/kg. Besides, in experiment [2], the IC50 came out at 18 nM and the inhibition at 0.2 µM was determined as 96%. In addition, the inhibition in vivo at 30 mg/kg in experiment [4] (Rattus norvegicus, po, 0.5 h, 30 mg/kg p.o., HPbCD, pretreatment 0.5 hr, Na salt form, read-out: Percent Inhibition) came to 49%.

For `CC(C)(O)c1c(N(CCC(F)(F)F)S(=O)(=O)c2ccc(C(=O)[O-])cc2)sc2ccccc12.[Na+]` [Compound 505, Sodium, N-(3-(1-Hydroxy-1-methyl-ethyl)-benzo[b]thiophen-2-yl)-N-(3,3,3-trifluoro-propyl)-4-carboxy-benzenesulfonamide], in experiment [3] (HPbCD, 60 min pre-icilin), the “% Inhibition” value is on record as 72%. In experiment [2], the 50% inhibitory concentration (IC50) was found to be 24 nM and the “% Inh @ 0.2 (μM)” value turned out to be 98%. The “Percent Inhibition” value in experiment [4] (30 mg/kg p.o., HPbCD, pretreatment 1 hr, Na salt form) is reported as 11%.

`Cc1c(N(Cc2ccc(OC(F)(F)F)cc2)S(=O)(=O)c2cccnc2)sc2ccccc12` [Compound 13, N-(3-Methyl-benzo[b]thiophen-2-yl)-N-(4-trifluoromethoxy-benzyl)-pyridine-3-sulfonamide]: the inhibition in vivo at 30 mg/kg in experiment [1] stood at 28%. Moreover, in experiment [2], the IC50 came to 3 nM and the inhibition at 0.5 µM worked out at 97%.

As to `CCCCN(c1sc2ccccc2c1Br)S(=O)(=O)c1ccc(C(=O)O)cc1` [Compound 272, N-(3-Bromo-benzo[b]thiophen-2-yl)-N-(butyl)-4-carboxy-benzenesulfonamide], the ED50 in experiment [3] (HPbCD, 30 min pre-icilin) was 22 mg/kg. For the same compound, in experiment [2], the IC50 is 6.2 nM and the inhibition at 0.2 µM stood at 97%. The inhibition in vivo at 30 mg/kg in experiment [4] (Rattus norvegicus, po, 1 h, 30 mg/kg p.o., HPbCD, pretreatment 1 hr, Na salt form, read-out: Percent Inhibition) worked out at 31%.

With `O=S(=O)(c1cccnc1)N(Cc1ccc(F)c(F)c1)c1sc2ccccc2c1Br` [Compound 149, N-(3-Bromo-benzo[b]thiophen-2-yl)-N-(3,4-difluoro-benzyl)-pyridin-3-yl-sulfonamide], the inhibition in vivo at 30 mg/kg in experiment [1] was -3%. Moreover, in experiment [2], the IC50 was found to be 7.1 nM, the inhibition at 0.2 µM was determined as 102% and the inhibition at 0.5 µM came to 101%.

With `O=S(=O)(c1ccccc1)N(Cc1ccc(F)c(C(F)(F)F)c1)c1sc2ccccc2c1Cl` [Compound 7, N-(3-Chloro-benzo[b]thiophen-2-yl)-N-(4-fluoro-3-trifluoromethyl-benzyl)-benzenesulfonamide], the inhibition in vivo at 30 mg/kg stood at 65% in experiment [1]; 66% in experiment [4] (Rattus norvegicus, ip, 2 h, 30 mg/kg i.p., 10% Solutol, pretreatment 2 hr, CO2H form, read-out: Percent Inhibition); 47% in experiment [4] (Rattus norvegicus, po, 1 h, 30 mg/kg p.o., 10% Solutol, pretreatment 1 hr, CO2H form, read-out: Percent Inhibition). Also, in experiment [2], the IC50 is 7.3 nM. Besides, in experiment [2], the inhibition at 0.5 µM turned out to be 97%.

For the compound `O=C(O)c1ccc(S(=O)(=O)N(CCC(F)(F)F)c2sc3ccccc3c2Br)cc1` [Compound 271, N-(3-Bromo-benzo[b]thiophen-2-yl)-N-(3,3,3-trifluoro-propyl)-4-carboxy-benzenesulfonamide], the ED50 in experiment [3] (Water, 30 min pre-icilin) turned out to be 5.7 mg/kg. In addition, in experiment [2], the inhibition at 0.2 µM came out at 98%. In experiment [4] (Rattus norvegicus, po, 1 h, 10 mg/kg p.o., HPbCD, pretreatment 1 hr, Na salt form, read-out: Percent Inhibition), the inhibition in vivo at 10 mg/kg came out at 24%. Besides, the inhibition in vivo at 100 mg/kg in experiment [4] (Rattus norvegicus, po, 1 h, 100 mg/kg p.o., HPbCD, pretreatment 1 hr, Na salt form, read-out: Percent Inhibition) was 56%.

With `O=S(=O)(c1ccccc1)N(Cc1ccc(F)c(F)c1)c1sc2ccccc2c1Br` [Compound 148, N-(3-Bromo-benzo[b]thiophen-2-yl)-N-(3,4-difluoro-benzyl)-benzenesulfonamide], in experiment [1], the inhibition in vivo at 30 mg/kg is 33%. In experiment [2], the IC50 came to 2.1 nM and the inhibition at 0.5 µM stood at 98%.

Take `Cc1c(N(Cc2ccc(F)c(F)c2)S(=O)(=O)c2cn(C)cn2)sc2ccccc12` [Compound 2, N-(3,4-Difluoro-benzyl)-N-(3-methyl-benzo[b]thiophen-2-yl)-1-methyl-1H-imidazole-4-sulfonamide]: the inhibition in vivo at 30 mg/kg in experiment [1] came out at 18%. Moreover, in experiment [2], the IC50 turned out to be 16.3 nM and the inhibition at 0.5 µM is 99%.

Turning to `O=S(=O)(c1cccnc1)N(Cc1ccc(F)c(C(F)(F)F)c1)c1sc2ccccc2c1Br` [Compound 188, N-(3-Bromo-benzo[b]thiophen-2-yl)-N-(4-fluoro-3-trifluoromethyl-benzyl)-pyridin-3-yl-sulfonamide], the inhibition in vivo at 30 mg/kg in experiment [1] amounted to 7%. Also, in experiment [2], the IC50 was determined as 12.2 nM, the inhibition at 0.2 µM was 99% and the inhibition at 0.5 µM turned out to be 101%.

A word on the IC50: it is the point on the concentration scale where inhibition reaches its midpoint. What is called % Inhibition is the share of the control response that was lost under treatment. Broadly, the ED50 is the dose that gives a 50% effect, or the effect in half of the subjects.
